Consider one molecule from patent US20090318468A1, “PYRAZOLE COMPOUNDS 436” (AstraZeneca AB, priority 2008, published 2009).

As usually defined, the IC50 is the concentration needed to halve the response being measured.

The assay concerns the target T1, human cytochrome P450 (CYP) 2C19 (Homo sapiens, UniProt P33261).
T1 construct: made in house; host or cells: yeast (microsomal fraction)
Kind of assay: Cytochrome P450 Inhibition Assay, CYP 2C19. The class given is in vitro ADME. To be noted: expected IC50 range of known inhibitor (positive control); read-out: IC50 range (μM), CYP 2C19. The method, then:
Cytochrome P450 Inhibition Assay
The inhibitory potential (IC50) of test compounds against 5 human cytochrome P450 (CYP) isoforms (1A2, 2C9, 2C19, 3A4 and 2D6) was assessed using an automated fluorescent end point in vitro assay modified from Crespi (Crespi and Stresser, J Pharmacol Toxicol Methods 2000, 44: 325-331). Microsomal subcellular fractions prepared from Yeast cell lines expressing each human CYP isoform were used as an enzyme source in this assay. The activity of the 5 major human CYPs was determined from the biotransformation of a number of coumarin substrates to fluorescent metabolites, in the presence of NADPH. […] Stock solutions of each CYP, with its respective substrate, were prepared in phosphate buffer pH 7.4 (see Table 1) and 178 μl was added to the well of a black solid, flat bottom, 300 μl 96 well microtitre plate (Corning Costar). […] After pre-incubating at 37° C. for 5 min the reactions were started with addition of NADPH (20 μl, concentration shown in Table 1). The final solvent content in each incubation was <=2% (1% from the test compound and a maximum of 1% from the substrate). The appropriate solvent controls and substrate blanks were included in each experiment to assess control activity and identify any inherent fluorescence due to the test compounds. In addition, known inhibitors of each CYP were included as positive controls (see Table 3 for inhibitor concentrations and expected IC50 ranges). The reactions were stopped at defined timepoints (see Table 1) by quenching with 100 μl of solvent (acetonitrile:0.5M Tris buffer 80:20 v/v). The plates were read on a fluorimeter (Spectrafluor Plus) at the appropriate excitation and emission wavelengths (listed in Table 2) and the percent activity, corrected for control, was plotted against the test compound concentration.

T1 sequence (P33261 whole entry): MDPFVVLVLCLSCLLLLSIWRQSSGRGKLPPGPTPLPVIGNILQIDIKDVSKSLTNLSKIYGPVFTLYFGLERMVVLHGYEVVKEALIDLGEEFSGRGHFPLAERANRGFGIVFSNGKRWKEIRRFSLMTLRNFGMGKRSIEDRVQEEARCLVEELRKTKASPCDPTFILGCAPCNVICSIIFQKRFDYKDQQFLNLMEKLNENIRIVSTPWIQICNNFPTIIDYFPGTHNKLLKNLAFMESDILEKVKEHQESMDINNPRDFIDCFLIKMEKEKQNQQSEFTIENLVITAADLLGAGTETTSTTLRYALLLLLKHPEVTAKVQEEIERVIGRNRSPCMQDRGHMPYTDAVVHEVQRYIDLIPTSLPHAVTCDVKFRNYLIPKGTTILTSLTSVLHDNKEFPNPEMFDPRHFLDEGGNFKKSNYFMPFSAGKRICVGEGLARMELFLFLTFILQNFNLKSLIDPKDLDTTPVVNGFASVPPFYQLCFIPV

For `COc1ccc2[nH]c([S+]([O-])Cc3ncc(C)c(OC)c3C)nc2c1` (stereo not shown) [Omeprazole, reference compound], the IC50 is 1.5 to 4.6 µM.
